Patent US20090137517A1, “SENSITIZING A CELL TO CANCER TREATMENT BY MODULATING THE ACTIVITY OF A NUCLEIC ACID ENCODING RPS27L PROTEIN” (Agency for Science, Technology and Research, priority 2006, published 2009)

Key:
Format in all cases: cell-based, human
HCT116 cells [1] = assay: Cell cycle and apoptosis analysis by flow cytometry (sub-G1 DNA content)
Method: (§1) Cells cycle analysis was performed by DNA content quantification. The cells were fixed with 70% ethanol and stained with propidium iodide (50 μg/ml) staining. The stained cells were analyzed by FACScalibur (BD Bioscience). For the BrdU incorporation assay and mitochondrial membrane potential detection, the BrdU Flow Kit and JC-1 staining kit (both from BD Bioscience) were used, respectively, following the instruction manual. Stained cells were analyzed by FACScalibur (BD Bioscience) and quantified by using CellQuest software (BD Bioscience).

HCT116 cells [2] = assay: JC-1 staining, mitochondrial membrane potential by flow cytometry; conditions: control HCT116 cells, ADR treatment
Method: To further define the nature of this cell death response the inventors used another assay, namely flow cytometric detection of cells stained with JC-1. The JC-1-staining identifies cell death events as a result of loss of mitochondria membrane potential (ΔΨm).
as §1

HCT116 cells [3] = assay: Alkaline single cell gel electrophoresis (comet) assay; conditions: RPS27L-depleted versus control HCT116 cells, ADR 24 h
Method: In order to examine DNA damage directly, the comet assay was used next. […] Cells were incubated with ADR for 24 h and were harvested and processed for the comet assay.
The treated cells were subjected to a single cell gel electrophoresis (comet) assay as described earlier (Poonepalli, A., Balakrishnan, L., et al. (2005), supra) and stained with SYBR green dye. The tail moment of the comets was generated using the Metasystems (Germany) analysis software ‘Comet imager version 1.2’. Fifty randomly chosen comets were analyzed per sample. The extent of DNA damage observed was expressed as tail moment, which corresponded to the fraction of the DNA in the tail of the comet.

HCT116 cells [4] = assay: BrdU incorporation / 7-amino-actinomycin D FACS analysis; conditions: for cells with a hyperploid DNA content (>4.v): ADR 24 hours
Method: Given the increased sensitivity to DNA damage upon RPS27L depletion, the inventors next investigated whether loss of RPS27L could impair the DNA damage checkpoint. […] However, parental cells underwent a dramatic decrease in DNA synthesis (from 85% to 11%) 24 hours after ADR treatment, whereas in HCT116 cells lacking RPS27L, this decrease in DNA synthesis was partially rescued (from 86% to 27%) (FIG. 5A).
as §1

Question: Which “cell cycle and apoptosis response” value (HCT116 cells [1]; HCT116 p53+/+ and p53−/−, ADR (1 μM) or 5-FU (375 μM) for 48 h) does the source give for `COc1cccc2c1C(=O)c1c(O)c3c(c(O)c1C2=O)C[C@@](O)(C(=O)CO)C[C@@H]3O[C@H]1C[C@H](N)[C@H](O)[C@H](C)O1` [ADR, adriamycin] here?
Answer: p53-dependent cell cycle arrest

Question: And the “cell death (sub-G1 DNA content)” value (HCT116 cells [1]; RPS27L depletion in p53 null HCT116 cells, ADR 48 h)?
Answer: did not give rise to the same result

Question: What about the cellular response (HCT116 cells [1]; p53 wild-type HCT116 expressing control shRNA, ADR 48 h) of the same compound?
Answer: growth arrest response

Question: What about the “percentage of cells with lower membrane potential (ΔΨm)” value (HCT116 cells [2]) of the same compound?
Answer: 13.5%

Question: And the “DNA damage (comet tail moment)” value (HCT116 cells [3])?
Answer: significantly enhanced

Question: And the “DNA synthesis (BrdU, cells in S-phase)” value (HCT116 cells [4]; HCT116 cells lacking RPS27L, 24 hours after ADR treatment (86% before))?
Answer: 27%

Question: And the “cells with a hyperploid DNA content (>4.v)” value (HCT116 cells [4]; RPS27L-depleted HCT116 cells)?
Answer: 30%

Question: And the “cells with a hyperploid DNA content (>4.v)” value (HCT116 cells [4]; control HCT116 cells)?
Answer: 10.5%

Question: What about the hyperploid population (HCT116 cells [4]; p21-depleted HCT116 cells after ADR treatment) of the same compound?
Answer: no increased hyperploid population

Question: And the “DNA synthesis (BrdU, cells in S-phase)” value (HCT116 cells [4]; parental (control) HCT116 cells, 24 hours after ADR treatment (85% before))?
Answer: 11%
